{"source": "the kinase profiling compilation of Christmann-Franck et al. (2016)", "experiment_in_all_cases": "radiometric filter-binding kinase assay, Kinase HotSpot", "details_in_all_cases": "compound 0.5 µM; ATP 10 µM", "key": {"CAMK2A (human)": {"target": "CAMK2A (human) (UniProt Q9UQM7)"}, "FGFR1 (human)": {"target": "FGFR1 (human) (UniProt P11362)", "sequence (P11362 whole entry, looked up)": "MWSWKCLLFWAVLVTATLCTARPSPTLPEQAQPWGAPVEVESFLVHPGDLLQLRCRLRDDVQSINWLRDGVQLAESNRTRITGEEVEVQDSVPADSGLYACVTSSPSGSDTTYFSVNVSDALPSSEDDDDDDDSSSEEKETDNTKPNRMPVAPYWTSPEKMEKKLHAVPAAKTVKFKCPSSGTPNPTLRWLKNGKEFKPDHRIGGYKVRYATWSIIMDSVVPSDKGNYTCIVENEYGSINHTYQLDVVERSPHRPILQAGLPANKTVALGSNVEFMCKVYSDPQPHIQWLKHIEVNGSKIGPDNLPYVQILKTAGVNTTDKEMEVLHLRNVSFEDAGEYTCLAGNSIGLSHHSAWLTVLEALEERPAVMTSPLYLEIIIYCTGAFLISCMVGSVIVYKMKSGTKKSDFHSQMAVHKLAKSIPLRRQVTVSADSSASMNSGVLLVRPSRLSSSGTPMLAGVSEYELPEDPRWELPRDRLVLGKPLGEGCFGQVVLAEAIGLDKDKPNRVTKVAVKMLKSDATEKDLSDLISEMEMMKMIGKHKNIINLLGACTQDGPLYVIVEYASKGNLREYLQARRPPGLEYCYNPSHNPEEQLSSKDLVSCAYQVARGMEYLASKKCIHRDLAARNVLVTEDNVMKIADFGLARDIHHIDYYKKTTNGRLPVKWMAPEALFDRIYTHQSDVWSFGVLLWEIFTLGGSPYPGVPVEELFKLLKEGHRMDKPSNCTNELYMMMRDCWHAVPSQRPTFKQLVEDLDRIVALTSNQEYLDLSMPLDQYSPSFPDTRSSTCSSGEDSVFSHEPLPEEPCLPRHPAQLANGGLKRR"}, "PKN1 (human)": {"target": "PKN1 (human) (UniProt Q16512)"}, "CSNK1G3 (human)": {"target": "CSNK1G3 (human) (UniProt Q9Y6M4)"}, "TGFBR2 (human)": {"target": "TGFBR2 (human) (UniProt P37173)"}, "CDK1 CCNB1 (human)": {"target": "CDK1 CCNB1 (human) (UniProt P06493+P14635)"}, "WNK3 (human)": {"target": "WNK3 (human) (UniProt Q9BYP7)"}, "DAPK3 (human)": {"target": "DAPK3 (human) (UniProt O43293)"}, "RPS6KA6 KD1 KD2 (human)": {"target": "RPS6KA6 KD1 KD2 (human) (UniProt Q9UK32)"}, "FRK (human)": {"target": "FRK (human) (UniProt P42685)"}, "INSR (human)": {"target": "INSR (human) (UniProt P06213)"}, "MYLK (human)": {"target": "MYLK (human) (UniProt Q15746)"}, "MUSK (human)": {"target": "MUSK (human) (UniProt O15146)"}, "PRKD3 (human)": {"target": "PRKD3 (human) (UniProt O94806)"}, "MAP2K1 (human)": {"target": "MAP2K1 (human) (UniProt Q02750)", "sequence (Q02750 whole entry, looked up)": "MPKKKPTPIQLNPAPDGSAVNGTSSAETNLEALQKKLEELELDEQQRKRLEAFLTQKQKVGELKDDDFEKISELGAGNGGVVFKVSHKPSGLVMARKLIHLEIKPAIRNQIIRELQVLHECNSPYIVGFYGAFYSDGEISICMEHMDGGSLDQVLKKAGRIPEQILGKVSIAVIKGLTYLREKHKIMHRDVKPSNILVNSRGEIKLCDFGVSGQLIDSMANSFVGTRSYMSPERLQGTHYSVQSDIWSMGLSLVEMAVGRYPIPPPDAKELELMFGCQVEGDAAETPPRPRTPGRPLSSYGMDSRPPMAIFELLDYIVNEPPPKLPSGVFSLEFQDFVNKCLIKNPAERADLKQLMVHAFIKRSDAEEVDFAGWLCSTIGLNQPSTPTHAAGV"}, "[1]": {"target": "TYK2 JH1 catalytic (human) (UniProt P29597)", "sequence (P29597 whole entry, looked up)": "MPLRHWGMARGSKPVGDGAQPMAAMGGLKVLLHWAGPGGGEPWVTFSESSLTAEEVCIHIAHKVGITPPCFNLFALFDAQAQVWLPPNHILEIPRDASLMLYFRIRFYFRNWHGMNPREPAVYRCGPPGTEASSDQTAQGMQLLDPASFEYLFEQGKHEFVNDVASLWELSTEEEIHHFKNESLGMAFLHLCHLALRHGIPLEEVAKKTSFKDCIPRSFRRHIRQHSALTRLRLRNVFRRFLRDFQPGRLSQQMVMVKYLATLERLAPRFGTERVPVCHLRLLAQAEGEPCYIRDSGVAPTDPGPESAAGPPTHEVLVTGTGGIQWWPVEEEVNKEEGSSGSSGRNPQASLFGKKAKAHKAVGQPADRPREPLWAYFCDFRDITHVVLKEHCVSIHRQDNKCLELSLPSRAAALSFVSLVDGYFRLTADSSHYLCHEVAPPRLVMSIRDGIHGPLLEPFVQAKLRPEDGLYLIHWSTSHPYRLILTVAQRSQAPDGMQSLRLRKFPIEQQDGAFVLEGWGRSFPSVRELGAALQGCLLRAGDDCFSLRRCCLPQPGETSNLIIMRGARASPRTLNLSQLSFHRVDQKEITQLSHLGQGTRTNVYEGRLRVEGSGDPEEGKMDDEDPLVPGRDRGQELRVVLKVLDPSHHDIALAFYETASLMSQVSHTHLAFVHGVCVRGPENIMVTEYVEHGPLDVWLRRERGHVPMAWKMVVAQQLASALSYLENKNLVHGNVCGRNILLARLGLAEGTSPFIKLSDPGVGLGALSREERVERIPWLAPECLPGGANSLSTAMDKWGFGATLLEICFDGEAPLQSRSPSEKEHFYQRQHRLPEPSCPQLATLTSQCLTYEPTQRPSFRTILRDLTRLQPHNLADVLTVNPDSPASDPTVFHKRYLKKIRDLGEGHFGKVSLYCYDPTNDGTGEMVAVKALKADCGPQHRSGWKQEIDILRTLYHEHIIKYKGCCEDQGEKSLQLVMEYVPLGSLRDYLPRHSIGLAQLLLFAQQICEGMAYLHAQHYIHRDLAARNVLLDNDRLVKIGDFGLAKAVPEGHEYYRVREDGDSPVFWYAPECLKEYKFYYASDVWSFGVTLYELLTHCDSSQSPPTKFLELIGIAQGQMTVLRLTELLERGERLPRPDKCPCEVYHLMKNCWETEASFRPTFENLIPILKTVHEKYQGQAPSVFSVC"}, "GRK5 (human)": {"target": "GRK5 (human) (UniProt P34947)"}, "SLK (human)": {"target": "SLK (human) (UniProt Q9H2G2)"}, "[2]": {"tested_on": "SGK1 (human), O00141 [S422D]"}, "STK4 (human)": {"target": "STK4 (human) (UniProt Q13043)"}, "RPS6KA1 KD1 KD2 (human)": {"target": "RPS6KA1 KD1 KD2 (human) (UniProt Q15418)"}, "MAPK11 (human)": {"target": "MAPK11 (human) (UniProt Q15759)", "sequence (Q15759 whole entry, looked up)": "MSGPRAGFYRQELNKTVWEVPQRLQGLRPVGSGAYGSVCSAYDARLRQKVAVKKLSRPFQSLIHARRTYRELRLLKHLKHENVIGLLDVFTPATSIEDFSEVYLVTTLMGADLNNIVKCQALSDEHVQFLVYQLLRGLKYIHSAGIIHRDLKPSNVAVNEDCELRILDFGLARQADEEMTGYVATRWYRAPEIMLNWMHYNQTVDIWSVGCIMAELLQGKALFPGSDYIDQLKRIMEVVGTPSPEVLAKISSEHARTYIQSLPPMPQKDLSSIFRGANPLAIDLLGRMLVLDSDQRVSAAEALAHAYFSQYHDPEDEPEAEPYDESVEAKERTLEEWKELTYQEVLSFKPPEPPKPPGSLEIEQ"}, "DCLK2 (human)": {"target": "DCLK2 (human) (UniProt Q8N568)"}, "CDK2 CCNA2 (human)": {"target": "CDK2 CCNA2 (human) (UniProt P24941+P20248)", "sequence (P20248 whole entry, looked up, other chains not shown)": "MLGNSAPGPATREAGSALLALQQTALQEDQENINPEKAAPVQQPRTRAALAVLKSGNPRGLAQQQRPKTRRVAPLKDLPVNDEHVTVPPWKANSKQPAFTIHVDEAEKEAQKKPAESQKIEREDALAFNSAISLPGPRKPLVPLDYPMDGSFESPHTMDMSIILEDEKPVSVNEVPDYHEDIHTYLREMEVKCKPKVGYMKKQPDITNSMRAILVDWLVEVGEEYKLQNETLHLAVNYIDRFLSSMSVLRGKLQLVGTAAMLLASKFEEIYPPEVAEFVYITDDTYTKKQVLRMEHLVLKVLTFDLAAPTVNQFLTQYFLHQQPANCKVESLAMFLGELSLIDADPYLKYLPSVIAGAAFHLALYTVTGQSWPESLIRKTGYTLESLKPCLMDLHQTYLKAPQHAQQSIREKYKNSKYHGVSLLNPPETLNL"}, "AURKA (human)": {"target": "AURKA (human) (UniProt O14965)"}, "SGK3 (human)": {"target": "SGK3 (human) (UniProt Q96BR1)"}, "MARK4 (human)": {"target": "MARK4 (human) (UniProt Q96L34)"}, "ZAP70 (human)": {"target": "ZAP70 (human) (UniProt P43403)"}, "PAK2 (human)": {"target": "PAK2 (human) (UniProt Q13177)"}, "NTRK1 (human)": {"target": "NTRK1 (human) (UniProt P04629)"}, "STK39 (human)": {"target": "STK39 (human) (UniProt Q9UEW8)"}, "BLK (human)": {"target": "BLK (human) (UniProt P51451)"}, "CLK1 (human)": {"target": "CLK1 (human) (UniProt P49759)"}, "MARK2 (human)": {"target": "MARK2 (human) (UniProt Q7KZI7)"}, "WEE1 (human)": {"target": "WEE1 (human) (UniProt P30291)"}, "RPS6KB1 (human)": {"target": "RPS6KB1 (human) (UniProt P23443)"}, "PRKCZ (human)": {"target": "PRKCZ (human) (UniProt Q05513)", "sequence (Q05513 whole entry, looked up)": "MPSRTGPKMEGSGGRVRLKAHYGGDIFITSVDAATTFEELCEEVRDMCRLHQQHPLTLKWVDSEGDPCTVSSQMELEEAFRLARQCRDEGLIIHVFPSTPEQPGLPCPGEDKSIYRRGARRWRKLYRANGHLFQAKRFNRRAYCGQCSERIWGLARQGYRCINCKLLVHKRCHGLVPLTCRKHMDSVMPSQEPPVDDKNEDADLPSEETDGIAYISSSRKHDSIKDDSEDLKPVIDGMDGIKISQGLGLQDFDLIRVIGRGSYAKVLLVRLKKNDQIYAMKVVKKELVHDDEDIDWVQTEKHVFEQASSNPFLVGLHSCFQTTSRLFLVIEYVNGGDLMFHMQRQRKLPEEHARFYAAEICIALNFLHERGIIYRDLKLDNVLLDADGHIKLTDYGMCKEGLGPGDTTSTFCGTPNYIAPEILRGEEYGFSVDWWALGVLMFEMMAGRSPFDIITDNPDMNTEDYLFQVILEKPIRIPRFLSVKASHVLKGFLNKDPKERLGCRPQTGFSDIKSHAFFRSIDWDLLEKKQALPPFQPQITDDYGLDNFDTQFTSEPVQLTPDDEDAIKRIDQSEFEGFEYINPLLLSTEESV"}, "CSNK1D (human)": {"target": "CSNK1D (human) (UniProt P48730)"}, "BRSK1 (human)": {"target": "BRSK1 (human) (UniProt Q8TDC3)"}, "EPHB4 (human)": {"target": "EPHB4 (human) (UniProt P54760)", "sequence (P54760 whole entry, looked up)": "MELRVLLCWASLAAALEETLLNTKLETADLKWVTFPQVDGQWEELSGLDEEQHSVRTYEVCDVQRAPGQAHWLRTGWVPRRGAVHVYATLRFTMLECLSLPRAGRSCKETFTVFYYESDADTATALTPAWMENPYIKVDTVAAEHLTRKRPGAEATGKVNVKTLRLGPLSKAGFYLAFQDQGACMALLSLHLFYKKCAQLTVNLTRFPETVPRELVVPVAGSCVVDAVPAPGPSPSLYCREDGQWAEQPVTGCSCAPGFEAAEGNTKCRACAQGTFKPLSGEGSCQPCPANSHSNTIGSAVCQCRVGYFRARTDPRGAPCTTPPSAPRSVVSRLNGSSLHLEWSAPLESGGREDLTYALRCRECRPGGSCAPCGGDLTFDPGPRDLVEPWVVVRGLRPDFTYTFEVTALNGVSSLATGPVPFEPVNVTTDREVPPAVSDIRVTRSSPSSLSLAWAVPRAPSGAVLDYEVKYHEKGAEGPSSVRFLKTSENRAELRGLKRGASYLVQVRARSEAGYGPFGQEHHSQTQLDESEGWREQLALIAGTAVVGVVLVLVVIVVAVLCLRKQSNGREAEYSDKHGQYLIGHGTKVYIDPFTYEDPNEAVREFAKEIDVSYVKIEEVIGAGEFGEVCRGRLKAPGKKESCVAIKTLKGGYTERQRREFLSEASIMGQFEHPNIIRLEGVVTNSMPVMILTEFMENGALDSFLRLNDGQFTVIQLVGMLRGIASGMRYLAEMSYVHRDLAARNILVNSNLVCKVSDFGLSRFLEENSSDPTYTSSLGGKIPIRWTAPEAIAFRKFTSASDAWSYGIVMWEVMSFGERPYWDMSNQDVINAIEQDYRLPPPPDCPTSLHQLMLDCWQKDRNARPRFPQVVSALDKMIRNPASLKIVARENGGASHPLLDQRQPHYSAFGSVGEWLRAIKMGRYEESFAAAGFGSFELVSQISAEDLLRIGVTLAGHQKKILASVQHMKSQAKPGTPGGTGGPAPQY"}, "TGFBR1 (human)": {"target": "TGFBR1 (human) (UniProt P36897)"}, "MAPK9 (human)": {"target": "MAPK9 (human) (UniProt P45984)"}}, "data": [{"compound": "COc1cc2ncnc(Nc3ccc(O)c(Br)c3)c2cc1OC", "values": [{"measurement": "residual activity", "setting": "CAMK2A (human)", "value": 98, "unit": "%"}, {"measurement": "residual activity", "setting": "FGFR1 (human)", "value": 93.4, "unit": "%"}, {"measurement": "residual activity", "setting": "PKN1 (human)", "value": 95.6, "unit": "%"}, {"measurement": "residual activity", "setting": "CSNK1G3 (human)", "value": 101, "unit": "%"}, {"measurement": "residual activity", "setting": "TGFBR2 (human)", "value": 105, "unit": "%"}, {"measurement": "residual activity", "setting": "CDK1 CCNB1 (human)", "value": 81.3, "unit": "%"}, {"measurement": "residual activity", "setting": "WNK3 (human)", "value": 95.7, "unit": "%"}, {"measurement": "residual activity", "setting": "DAPK3 (human)", "value": 99.1, "unit": "%"}, {"measurement": "residual activity", "setting": "RPS6KA6 KD1 KD2 (human)", "value": 57.8, "unit": "%"}, {"measurement": "residual activity", "setting": "FRK (human)", "value": 74.7, "unit": "%"}, {"measurement": "residual activity", "setting": "INSR (human)", "value": 92.4, "unit": "%"}, {"measurement": "residual activity", "setting": "MYLK (human)", "value": 84.6, "unit": "%"}, {"measurement": "residual activity", "setting": "MUSK (human)", "value": 78.2, "unit": "%"}, {"measurement": "residual activity", "setting": "PRKD3 (human)", "value": 72.8, "unit": "%"}, {"measurement": "residual activity", "setting": "MAP2K1 (human)", "value": 98.2, "unit": "%"}, {"measurement": "residual activity", "setting": "[1]", "value": 96.5, "unit": "%"}, {"measurement": "residual activity", "setting": "GRK5 (human)", "value": 101, "unit": "%"}, {"measurement": "residual activity", "setting": "SLK (human)", "value": 50.3, "unit": "%"}, {"measurement": "residual activity", "setting": "[2]", "value": 95.7, "unit": "%"}, {"measurement": "residual activity", "setting": "STK4 (human)", "value": 90, "unit": "%"}, {"measurement": "residual activity", "setting": "RPS6KA1 KD1 KD2 (human)", "value": 78.2, "unit": "%"}, {"measurement": "residual activity", "setting": "MAPK11 (human)", "value": 90.1, "unit": "%"}, {"measurement": "residual activity", "setting": "DCLK2 (human)", "value": 101, "unit": "%"}, {"measurement": "residual activity", "setting": "CDK2 CCNA2 (human)", "value": 88.7, "unit": "%"}, {"measurement": "residual activity", "setting": "AURKA (human)", "value": 83.1, "unit": "%"}, {"measurement": "residual activity", "setting": "SGK3 (human)", "value": 94.5, "unit": "%"}, {"measurement": "residual activity", "setting": "MARK4 (human)", "value": 92.4, "unit": "%"}, {"measurement": "residual activity", "setting": "ZAP70 (human)", "value": 99.7, "unit": "%"}, {"measurement": "residual activity", "setting": "PAK2 (human)", "value": 90.6, "unit": "%"}, {"measurement": "residual activity", "setting": "NTRK1 (human)", "value": 96.4, "unit": "%"}, {"measurement": "residual activity", "setting": "STK39 (human)", "value": 87.4, "unit": "%"}, {"measurement": "residual activity", "setting": "BLK (human)", "value": 83.8, "unit": "%"}, {"measurement": "residual activity", "setting": "CLK1 (human)", "value": 77.2, "unit": "%"}, {"measurement": "residual activity", "setting": "MARK2 (human)", "value": 94.5, "unit": "%"}, {"measurement": "residual activity", "setting": "WEE1 (human)", "value": 92.5, "unit": "%"}, {"measurement": "residual activity", "setting": "RPS6KB1 (human)", "value": 82.1, "unit": "%"}, {"measurement": "residual activity", "setting": "PRKCZ (human)", "value": 93, "unit": "%"}, {"measurement": "residual activity", "setting": "CSNK1D (human)", "value": 89.7, "unit": "%"}, {"measurement": "residual activity", "setting": "BRSK1 (human)", "value": 81.6, "unit": "%"}, {"measurement": "residual activity", "setting": "EPHB4 (human)", "value": 52.2, "unit": "%"}, {"measurement": "residual activity", "setting": "TGFBR1 (human)", "value": 97.4, "unit": "%"}, {"measurement": "residual activity", "setting": "MAPK9 (human)", "value": 88.4, "unit": "%"}]}, {"compound": "COc1cc2c(N3CCN(C(=O)Nc4ccc(OC(C)C)cc4)CC3)ncnc2cc1OCCCN1CCCCC1", "values": [{"measurement": "residual activity", "setting": "CAMK2A (human)", "value": 101, "unit": "%"}, {"measurement": "residual activity", "setting": "FGFR1 (human)", "value": 101, "unit": "%"}, {"measurement": "residual activity", "setting": "PKN1 (human)", "value": 108, "unit": "%"}, {"measurement": "residual activity", "setting": "CSNK1G3 (human)", "value": 95, "unit": "%"}, {"measurement": "residual activity", "setting": "TGFBR2 (human)", "value": 102, "unit": "%"}, {"measurement": "residual activity", "setting": "CDK1 CCNB1 (human)", "value": 97.1, "unit": "%"}, {"measurement": "residual activity", "setting": "WNK3 (human)", "value": 102, "unit": "%"}, {"measurement": "residual activity", "setting": "DAPK3 (human)", "value": 101, "unit": "%"}, {"measurement": "residual activity", "setting": "RPS6KA6 KD1 KD2 (human)", "value": 106, "unit": "%"}, {"measurement": "residual activity", "setting": "FRK (human)", "value": 101, "unit": "%"}, {"measurement": "residual activity", "setting": "INSR (human)", "value": 99.3, "unit": "%"}, {"measurement": "residual activity", "setting": "MYLK (human)", "value": 96.6, "unit": "%"}, {"measurement": "residual activity", "setting": "MUSK (human)", "value": 99.6, "unit": "%"}, {"measurement": "residual activity", "setting": "PRKD3 (human)", "value": 97.3, "unit": "%"}, {"measurement": "residual activity", "setting": "MAP2K1 (human)", "value": 113, "unit": "%"}, {"measurement": "residual activity", "setting": "[1]", "value": 97.9, "unit": "%"}, {"measurement": "residual activity", "setting": "GRK5 (human)", "value": 106, "unit": "%"}, {"measurement": "residual activity", "setting": "SLK (human)", "value": 94.6, "unit": "%"}, {"measurement": "residual activity", "setting": "[2]", "value": 123, "unit": "%"}, {"measurement": "residual activity", "setting": "STK4 (human)", "value": 96.2, "unit": "%"}, {"measurement": "residual activity", "setting": "RPS6KA1 KD1 KD2 (human)", "value": 94.8, "unit": "%"}, {"measurement": "residual activity", "setting": "MAPK11 (human)", "value": 105, "unit": "%"}, {"measurement": "residual activity", "setting": "DCLK2 (human)", "value": 103, "unit": "%"}, {"measurement": "residual activity", "setting": "CDK2 CCNA2 (human)", "value": 93.3, "unit": "%"}, {"measurement": "residual activity", "setting": "AURKA (human)", "value": 108, "unit": "%"}, {"measurement": "residual activity", "setting": "SGK3 (human)", "value": 102, "unit": "%"}, {"measurement": "residual activity", "setting": "MARK4 (human)", "value": 98.7, "unit": "%"}, {"measurement": "residual activity", "setting": "ZAP70 (human)", "value": 116, "unit": "%"}, {"measurement": "residual activity", "setting": "PAK2 (human)", "value": 112, "unit": "%"}, {"measurement": "residual activity", "setting": "NTRK1 (human)", "value": 48.1, "unit": "%"}, {"measurement": "residual activity", "setting": "STK39 (human)", "value": 93.2, "unit": "%"}, {"measurement": "residual activity", "setting": "BLK (human)", "value": 100, "unit": "%"}, {"measurement": "residual activity", "setting": "CLK1 (human)", "value": 72.4, "unit": "%"}, {"measurement": "residual activity", "setting": "MARK2 (human)", "value": 109, "unit": "%"}, {"measurement": "residual activity", "setting": "WEE1 (human)", "value": 97.5, "unit": "%"}, {"measurement": "residual activity", "setting": "RPS6KB1 (human)", "value": 107, "unit": "%"}, {"measurement": "residual activity", "setting": "PRKCZ (human)", "value": 103, "unit": "%"}, {"measurement": "residual activity", "setting": "CSNK1D (human)", "value": 90.9, "unit": "%"}, {"measurement": "residual activity", "setting": "BRSK1 (human)", "value": 103, "unit": "%"}, {"measurement": "residual activity", "setting": "EPHB4 (human)", "value": 95, "unit": "%"}, {"measurement": "residual activity", "setting": "TGFBR1 (human)", "value": 102, "unit": "%"}, {"measurement": "residual activity", "setting": "MAPK9 (human)", "value": 103, "unit": "%"}]}]}
